Test results taken from PubChem BioAssay (NCI).
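1) Cells in 96-well plates. 2) Compound, 48 h, 5 concentrations. 3) Linear interpolation between surrounding doses. 4) Unreached endpoint = highest concentration. TGI: total growth inhibition.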

Tests used:
Assay in all cases: inhibition of tumour cell growth, NCI panel, 48 h
[1] = test system: 786-0 renal
[2] = test system: A498 renal
[3] = test system: A549 NSCLC
[4] = test system: ACHN renal
[5] = test system: CAKI-1 renal
[6] = test system: CCRF-CEM leukemia
[7] = test system: COLO 205 colon
[8] = test system: DLD-1 colon
[9] = test system: DMS 114 small cell lung
[10] = test system: DMS 273 small cell lung
[11] = test system: EKVX NSCLC
[12] = test system: HCC-2998 colon
[13] = test system: HCT-116 colon
[14] = test system: HCT-15 colon
[15] = test system: HL-60(TB) leukemia
[16] = test system: HOP-18 NSCLC
[17] = test system: HOP-62 NSCLC
[18] = test system: HT29 colon
[19] = test system: IGROV1 ovarian
[20] = test system: K-562 leukemia
[21] = test system: KM12 colon
[22] = test system: KM20L2 colon
[23] = test system: LOX IMVI melanoma
[24] = test system: LXFL 529 NSCLC
[25] = test system: M14 melanoma
[26] = test system: MALME-3M melanoma
[27] = test system: MOLT-4 leukemia
[28] = test system: NCI-H226 lung
[29] = test system: NCI-H23 lung
[30] = test system: NCI-H460 lung
[31] = test system: NCI-H522 lung
[32] = test system: OVCAR-3 ovarian
[33] = test system: OVCAR-4 ovarian
[34] = test system: OVCAR-5 ovarian
[35] = test system: OVCAR-8 ovarian
[36] = test system: RPMI-8226 leukemia
[37] = test system: RXF 393 renal
[38] = test system: SF-268 CNS
[39] = test system: SF-295 CNS
[40] = test system: SK-MEL-2 melanoma
[41] = test system: SK-MEL-28 melanoma
[42] = test system: SK-MEL-5 melanoma
[43] = test system: SK-OV-3 ovarian
[44] = test system: SN12C renal
[45] = test system: SNB-19 CNS
[46] = test system: SNB-75 CNS
[47] = test system: SNB-78 CNS
[48] = test system: SR leukemia
[49] = test system: SW-620 colon
[50] = test system: TK-10 renal
[51] = test system: U251 CNS
[52] = test system: UACC-257 melanoma
[53] = test system: UACC-62 melanoma
[54] = test system: UO-31 renal
[55] = test system: HOP-92 NSCLC
[56] = test system: M19-MEL melanoma
[57] = test system: SF-539 CNS

## O=C1C(=O)C2(CC1S(=O)(=O)c1ccccc1)c1ccccc1-c1ccccc12 (stereo not given)
[1]
  TGI: 82.5 µM
[2]
  TGI: 34.8 µM
[3]
  TGI: 63.7 µM
[4]
  TGI: 92 µM
[5]
  TGI: 61.6 µM
[6]
  TGI: 58.2 µM
[7]
  TGI: 26.1 µM
[8]
  TGI: 66.1 µM
[9]
  TGI: 53.3 µM
[10]
  TGI: 36.2 µM
[11]
  TGI: 72.8 µM
[12]
  TGI: 30.1 µM
[13]
  TGI: 31.9 µM
[14]
  TGI: 34.6 µM
[15]
  TGI: 58 µM
[16]
  TGI: > 10 µM
[17]
  TGI: 44 µM
[18]
  TGI: 59.7 µM
[19]
  TGI: 47.9 µM
[20]
  TGI: 59.3 µM
[21]
  TGI: 33.9 µM
[22]
  TGI: > 100 µM
[23]
  TGI: 34.5 µM
[24]
  TGI: 31 µM
[25]
  TGI: 28.4 µM
[26]
  TGI: > 10 µM
[27]
  TGI: 50.5 µM
[28]
  TGI: 82.6 µM
[29]
  TGI: 30.2 µM
[30]
  TGI: 36.2 µM
[31]
  TGI: 43.1 µM
[32]
  TGI: > 10 µM
[33]
  TGI: > 100 µM
[34]
  TGI: 46.5 µM
[35]
  TGI: 34.5 µM
[36]
  TGI: 58.9 µM
[37]
  TGI: 35.6 µM
[38]
  TGI: 76.7 µM
[39]
  TGI: 37.7 µM
[40]
  TGI: 33.8 µM
[41]
  TGI: 35.8 µM
[42]
  TGI: 28.2 µM
[43]
  TGI: > 100 µM
[44]
  TGI: 78.1 µM
[45]
  TGI: 40.4 µM
[46]
  TGI: > 100 µM
[47]
  TGI: 45.6 µM
[48]
  TGI: 50 µM
[49]
  TGI: 85.1 µM
[50]
  TGI: 68.9 µM
[51]
  TGI: 34.3 µM
[52]
  TGI: 33 µM
[53]
  TGI: 31.9 µM
[54]
  TGI: 47 µM

## CN(C)CCN1CCc2c([nH]c3ccccc23)C1c1cccnc1 (stereo not given)
[1]
  TGI: > 100 µM
[2]
  TGI: > 100 µM
[3]
  TGI: > 100 µM
[4]
  TGI: 50.9 µM
[5]
  TGI: > 100 µM
[6]
  TGI: > 100 µM
[8]
  TGI: > 100 µM
[9]
  TGI: > 100 µM
[10]
  TGI: > 100 µM
[11]
  TGI: > 100 µM
[12]
  TGI: > 100 µM
[13]
  TGI: > 100 µM
[14]
  TGI: > 100 µM
[15]
  TGI: > 100 µM
[16]
  TGI: > 100 µM
[17]
  TGI: > 100 µM
[55]
  TGI: > 100 µM
[18]
  TGI: > 100 µM
[19]
  TGI: > 100 µM
[20]
  TGI: > 100 µM
[21]
  TGI: > 100 µM
[22]
  TGI: > 100 µM
[25]
  TGI: > 100 µM
[56]
  TGI: > 100 µM
[27]
  TGI: > 100 µM
[29]
  TGI: > 100 µM
[30]
  TGI: > 100 µM
[31]
  TGI: > 100 µM
[32]
  TGI: > 100 µM
[33]
  TGI: > 100 µM
[34]
  TGI: > 100 µM
[35]
  TGI: > 100 µM
[36]
  TGI: > 100 µM
[37]
  TGI: > 100 µM
[38]
  TGI: > 100 µM
[39]
  TGI: > 100 µM
[57]
  TGI: > 100 µM
[41]
  TGI: > 100 µM
[42]
  TGI: > 100 µM
[43]
  TGI: > 100 µM
[44]
  TGI: > 100 µM
[45]
  TGI: > 100 µM
[46]
  TGI: > 100 µM
[47]
  TGI: > 100 µM
[48]
  TGI: > 100 µM
[49]
  TGI: > 100 µM
[50]
  TGI: > 100 µM
[51]
  TGI: > 100 µM
[52]
  TGI: > 100 µM
[53]
  TGI: > 100 µM
[54]
  TGI: > 100 µM
